Common to all, as to format: cell-based
The test system of assay [1] is K562 cells. In words: Cell viability assay (CellTiter-Glo). The following applies: Homo sapiens. On the procedure:
A concentration–response curve of CBK115334 was generated using the Bravo liquid handling system (serial dilution of a 50 mM stock solution was done in 100% DMSO). A total of 150 nl of the serially diluted solutions and controls (positive control 0.67 mM staurosporine and negative control DMSO) were transferred to a white 384-well assay plate (3570, Corning) by means of acoustic dispensing (Echo 550, Labcyte). A Multidrop reagent dispenser (Thermo Scientific) was used to dispense 30 μl of a K562 cell suspension at a density of 33 × 10^3 cells per ml in supplemented cell culture medium. The cells were incubated at 37 °C in the presence of 5% CO2 for 72 h before addition of 30 μl CellTiter-Glo Luminescent Cell Viability Assay reagent (Promega) using a Multidrop Combi reagent dispenser (Thermo Scientific). The plate was placed on a plate shaker for 15 min prior to detection of the luminescence signal in an Envision plate reader (PerkinElmer). The final highest concentration of CBK115334 in the incubation with cells was 250 μM and the final concentration of the positive control staurosporine was 3 μM. All samples contained 0.5% DMSO. The data were analyzed using microsoft excel and GraphPad Prism 6.

Assay [2] addresses T1, human thymidylate synthase (TS) (Homo sapiens, UniProt P04818).
T1 construct: screening in live, non-engineered cells expressing thymidylate synthase; endogenous in cells; host or cells: K562 (human myelogenous leukemia) cells
In words: CETSA primary screen / single-concentration retest, AlphaScreen, live K562 cells. On the procedure:
Compounds were placed in columns 1–22. […] At the day of the experiment the plates were allowed to thaw for 30 min followed by a brief centrifugation step (1,000 × g for 1 min) prior to removal of the seal. The compounds were then diluted with 20 μl supplemented cell culture medium using a Multidrop Combi reagent dispenser (Thermo Scientific). Finally 5 μl of the diluted compounds were transferred to a 384 well hardshell PCR plate (HSR480, BIORAD) using a Bravo liquid handling platform equipped with a 384-well head (Agilent). […] The final concentration of DMSO in the assay was 0.5% in all samples.
(§1) The screen procedure started with the addition of 5 μl of a suspension of K562 cells at a density of 10 million cells per ml to all wells of a 384 well hardshell PCR plate (HSR480, BIORAD) using an electronic multichannel pipette (Biohit). […] For the time-course experiments the incubation times were altered to include also 10 min, 30 min and 6 h. […] After the incubation step the plates were transiently heated at 50 °C for 3 min followed by a controlled cooling to 20 °C for 1 min using a real-time PCR machine (LightCycler480 system, Roche). Plate handling was then as described above for the thermal aggregation experiments. The data were analyzed using microsoft excel and GraphPad Prism 6.
(§2) A calculation of the average and standard error of means for each set of controls also allowed an illustration of how these responses varied over the 32 screening plates. The Z′ factor[38] is commonly used as a measure of how well the assay separates between the controls and this was calculated as described based on the calculated averages and standard deviations of the controls on a per plate basis. For the Tagg shift and the […] experiments the data were analyzed in GraphPad Prism using the Boltzmann sigmoid equation and the saturation binding curve (rectangular hyperbola; binding isotherm) function, respectively. As already discussed[14] these methods make use of equilibrium models for data analysis although the methodology depends on the irreversible aggregation of denatured material. For this reason we refer to the observed responses as apparent and isothermal dose-response fingerprints and are careful with any quantitative interpretations, being well aware of their dependency on experimental conditions. Experiments are on-going to address the quantitative interpretation of CETSA data.

In assay [3] the target is T1, human thymidylate synthase (TS). Put plainly: ITDRF CETSA at 50 °C, AlphaScreen detection, live K562 cells. The following applies: 2 h preincubation, 50 °C, unit taken from curve axis log [cmp] (M), read-out: ITDRF CETSA (hit confirmation). On the procedure: For the […] experiments 11-point dose-response curves with three-fold difference in concentration between wells were generated using the Bravo liquid handling system (all serial dilutions were done in 100% DMSO). […] The concentration of DMSO was 0.5% in all samples. […] The assay ready plates were prepared as outlined above for the screen.
as §1, §2

The target of assay [4] is TS (Homo sapiens, UniProt P04818). In words: Western blot ITDRF CETSA of decitabine with or without DCK inhibitor DI-82, K562 cells. The arrangement: screening in live, non-engineered cells expressing thymidylate synthase; endogenous in cells; host or cells: K562 (human myelogenous leukemia) cells. As for the experimental part:
K562 cells were treated with each respective compound concentrations and one vehicle as control in 100 μl aliquots in 0.2 ml tubes for 2 h in an incubator at 37 °C and 5% CO2. The cell aliquots were heated at 50 °C and analyzed with western blot following the procedure described above.
For the decitabine metabolism, decitabine was serially diluted to generate an 11 point dose–response curve and an […] experiment was performed as described above in absence and presence of 200 μM of the DCK inhibitor DI-82 (referred to as 12R in the main text of the original publication and DI-82 in the Supplementary Material)[34].
NuPage Novex Bis-Tris 4–12% polyacrylamide gels with NuPAGE MES SDS running buffer (Life Technologies) were used for separation of proteins in the samples. Proteins were transferred to nitrocellulose membranes using the iBlot2 blotting system (Life Technologies). Primary antibodies anti-TS (D5B3) XP (Cell Signaling), anti-dCK (sc-393099), anti-β-actin (sc-69879); secondary goat anti-mouse HRP-IgG (sc-2055) and bovine anti-rabbit HRP-IgG (sc-2374) antibodies (Santa Cruz Biotechnology, Santa Cruz, CA, USA) were used for immunoblotting. […] Chemiluminescence intensities were detected and quantified using a ChemiDoc XRS+ imaging system (Bio-Rad) with Image Lab software (Bio-Rad).

Molecules are shown by their SMILES. Where two headings read alike, the source gives them in different places.

T1 sequence (P04818 2-313 limits assumed): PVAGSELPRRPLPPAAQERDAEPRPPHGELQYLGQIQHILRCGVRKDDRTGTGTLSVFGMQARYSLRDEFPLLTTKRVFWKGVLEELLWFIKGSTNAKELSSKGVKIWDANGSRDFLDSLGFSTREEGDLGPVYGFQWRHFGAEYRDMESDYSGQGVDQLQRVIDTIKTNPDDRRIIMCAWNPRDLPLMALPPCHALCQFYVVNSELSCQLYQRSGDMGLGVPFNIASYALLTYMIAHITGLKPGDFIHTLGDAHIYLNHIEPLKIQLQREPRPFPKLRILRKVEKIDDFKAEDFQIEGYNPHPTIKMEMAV
Chain of TS (P04818 2-313 limits assumed): as above

Turning to `Cc1cc(O)nc2sc(C(=O)c3ccccc3)c(N)c12` [CBK115334, 3-amino-2-benzoyl-4-methylthieno(2,3-b)pyridin-6-ol], the IC50 in assay [1] (72 hours incubation, read-out: IC50 cell viability) is 88 ± 15 µM; in assay [1] (read-out: IC50 cell proliferation), less than 100 µM. Moreover, in assay [2] (K562, 2 h; read-out: % stabilization in screen), the % stabilization in screen at 50 µM worked out at 20%.
`Nc1ncn([C@H]2C[C@H](O)[C@@H](CO)O2)c(=O)n1` [decitabine, 5-Aza-deoxycytidine]: the EC50 in assay [3] was 6.87e-08 M. Also, the “stabilization of TS (ITDRFCETSA)” value in assay [4] (in absence of DI-82, K562 cells) is recorded as “Dose-dependent stabilization”. The “ability to bind TS (ITDRFCETSA)” value in assay [4] (in presence of 200 μM DI-82, K562 cells) is given as “completely blunted”. The % stabilization in screen at 50 µM in assay [2] (K562, 2 h, read-out: % stabilization in screen) was 91%.
